Experimental data from publication PMC12040169 (PLOS Biology, 2025).

Experiment: in vitro
Settings: human, hela cells, % viability

SMILES | viability at 28.5 h, 10 µM [%]
CCOc1cccc2sc(NC(=O)CC)nc12 [CBK287307] | 86.5
Cc1cc(C)c2nc(NC(=O)c3ccccc3)sc2c1 [CBK287308] | 97.9
CC(=O)c1ccc(C(=O)Nc2ccc3nc(C)sc3c2)cc1 [CBK287310] | 95.5
COc1ccc(C(=O)Nc2nc3ccc(NC(C)=O)cc3s2)cc1OC [CBK287311] | 101
CC(=O)Nc1nc(-c2cc3ccccc3oc2=O)cs1 [CBK287312] | 106
Cc1ccn2cc(-c3cc4c(ccc5ccccc54)oc3=O)nc2c1 [CBK287313] | 100
CC(=O)c1sc(NC(=O)c2ccccc2Oc2ccccc2)nc1C [CBK287314] | 90.9
CC(=O)Nc1nc(-c2ccc(Cl)s2)cs1 [CBK287317] | 89.5
CC1(C)CC(=O)c2sc(NC(=O)c3ccccc3)nc2C1 [CBK287318] | 85.6
O=C(Cc1ccccc1)Nc1ncc(Cc2ccccc2)s1 [CBK287322] | 95.6
O=C(CSc1nnc2ccccn12)Nc1ccccc1 [CBK287328] | 109
CC(=O)Nc1nnc(-c2ccc(Cl)cc2)s1 [CBK287331] | 94.4
CC(=O)c1sc(NC(=O)c2ccc(N3C(=O)CCC3=O)cc2)nc1C [CBK287334] | 86.5
CC(=O)Nc1nc2ccc(S(C)(=O)=O)cc2s1 [CBK287336] | 110
CS(=O)(=O)c1ccc2nc(NC(=O)c3cccs3)sc2c1 [CBK287340] | 92.6
O=C(CN1C(=O)c2ccccc2C1=O)Nc1nc(-c2ccccc2)cs1 [CBK287343] | 106
O=C(CN1C(=O)CCC1=O)Nc1nc2ccccc2s1 [CBK287345] | 97.7
C=CCNC(=O)CSc1nc2sc(C)c(C)c2c(=O)[nH]1 [CBK287350] | 88.2
COc1ccc2nc(NC(=O)c3cccc(N4C(=O)CCC4=O)c3)sc2c1 [CBK287351] | 108
COc1ccc(C2C(C(=O)Nc3ccccc3)=C(C)Nc3ncnn32)cc1 (centres unmarked) [CBK287353] | 103
Clc1ccc(-n2ncc3c(NCc4ccccc4)ncnc32)cc1 [CBK287355] | 95.1
Cc1nnc(NC(=O)c2ccc3c(c2)OCO3)s1 [CBK287358] | 104
COc1ccc(CC(=O)Nc2nnc(C)s2)cc1OC [CBK287359] | 113
Cc1nnc(NC(=O)Cc2ccc(F)cc2)s1 [CBK287360] | 103

SMILES | viability at 28.5 h, 10 µM [%]
COc1ccc2nc(NC(=O)c3ccc4ncsc4c3)sc2c1 [CBK287364] | 94.8
COc1cccc2sc(NC(=O)c3ccc4ncsc4c3)nc12 [CBK287365] | 98.5
Cc1ccc2nc(NC(=O)C3COc4ccccc4O3)sc2c1 (centres unmarked) [CBK287366] | 103
COc1ccc(NC(=O)c2ccc3ncsc3c2)cc1 [CBK287368] | 107
O=C(NCc1ccccc1)c1cnc2n(c1=O)CCS2 [CBK287371] | 79.7
CC(NC(=O)c1cnc2n(c1=O)CCS2)c1ccccc1 (centres unmarked) [CBK287372] | 103
O=C(NCCC1=CCCCC1)c1cnc2n(c1=O)CCS2 [CBK287373] | 89.8
Cc1cccc(NC(=O)c2cnc3n(c2=O)CCS3)c1 [CBK287375] | 108
O=C(Nc1ccc(Oc2ccccc2)cc1)c1cnc2n(c1=O)CCS2 [CBK287377] | 95.1
O=C(Nc1ccc(OCc2ccccc2)cc1)c1cnc2n(c1=O)CCS2 [CBK287378] | 91.3
O=C(Nc1cccc(Cl)c1Cl)c1cnc2n(c1=O)CCS2 [CBK287380] | 95.1
O=C(Nc1ccc(F)cc1Cl)c1cnc2n(c1=O)CCS2 [CBK287382] | 104
COc1ccc(C)cc1NC(=O)c1cnc2n(c1=O)CCS2 [CBK287383] | 108
COc1ccc(Cc2nnc(Nc3ccc(OC)cc3)[nH]c2=O)cc1 [CBK287385] | 92.9
Brc1ccc(Nc2ncnc3nc[nH]c23)cc1 [CBK287386] | 105
COc1ccc(NC(=O)CSc2ncnc3c2oc2ccccc23)c(OC)c1 [CBK287395] | 87
O=C(CSc1ncnc2c1oc1ccccc12)NC1CCCCC1 [CBK287396] | 95.4
O=C(CSc1ncnc2c1oc1ccccc12)NCc1ccccc1 [CBK287397] | 101
COc1ccc(C)c2sc(NC(=O)c3sc(C)nc3C)nc12 [CBK287401] | 74
O=C(Nc1nnc(-c2ccc3c(c2)OCCO3)o1)c1cccc(F)c1 [CBK287402] | 101
O=C(Nc1nnc(-c2ccc3c(c2)OCCO3)o1)c1ccccc1F [CBK287405] | 112
Cc1cccc(C(=O)Nc2nnc(C3=COCCO3)o2)c1 [CBK287406] | 94
O=C(Nc1nnc(C2=COCCO2)o1)c1cccc(F)c1 [CBK287408] | 85.3
COc1cc(C(=O)Nc2nnc(C3=COCCO3)o2)cc(OC)c1OC [CBK287410] | 97.6

SMILES | viability at 28.5 h, 10 µM [%]
O=C(Nc1nnc(C2=COCCO2)o1)c1ccco1 [CBK287412] | 95.5
Cc1ccc(C(=O)Nc2nnc(C3=COCCO3)o2)cc1C [CBK287413] | 104
O=C(Cc1cccc2ccccc12)Nc1nnc(C2=COCCO2)o1 [CBK287414] | 86.6
O=C(Nc1nnc(C2=COCCO2)o1)c1cc(Cl)cc(Cl)c1 [CBK287418] | 91.1
O=C(Nc1nnc(C2=COCCO2)o1)c1ccc(Cl)cc1Cl [CBK287419] | 78
O=C(Nc1nnc(-c2ccco2)o1)c1ccccc1 [CBK287420] | 96.3
COc1cccc(C(=O)Nc2nnc(-c3ccco3)o2)c1 [CBK287421] | 106
O=C(Nc1nnc(-c2ccco2)o1)c1cccc(C(F)(F)F)c1 [CBK287422] | 88.6
O=C(Nc1nnc(-c2ccco2)o1)C(c1ccccc1)c1ccccc1 [CBK287424] | 91.9
CC(=O)Nc1nnc(-c2ccc3c(c2)CCCC3)o1 [CBK287426] | 88
N#Cc1ccc(C(=O)Nc2nnc(-c3ccccn3)o2)cc1 [CBK287428] | 100
Cc1cccc(C(=O)Nc2nnc(-c3ccncc3)o2)c1 [CBK287430] | 91.5
COc1cc2ccccc2cc1C(=O)Nc1nnc(-c2ccncc2)o1 [CBK287432] | 93.1
CCC(=O)NCCc1cc2ccc(C)cc2[nH]c1=O [CBK287434] | 92.4
COc1ccc(C(=O)Nc2cc(C)c3c(=O)oc4ccccc4c3n2)cc1 [CBK287435] | 79.6
Cc1cc(NC(=O)C2CCCC2)nc2c1c(=O)oc1ccccc12 [CBK287438] | 93.2
Cc1cc(NC(=O)C(C)(C)C)nc2c1c(=O)oc1ccccc12 [CBK287443] | 78.7
O=C(NCc1ccc2c(c1)OCO2)c1cnc2sccn2c1=O [CBK287446] | 91
Cc1ccc(NC(=O)c2cnc3sccn3c2=O)cc1 [CBK287448] | 93.1
O=C(Nc1ccc(F)c(F)c1)c1cnc2sccn2c1=O [CBK287450] | 104
Cc1cccc(NC(=O)c2cnc3scc(C)n3c2=O)c1 [CBK287453] | 112
Cc1csc2ncc(C(=O)Nc3ccccc3F)c(=O)n12 [CBK287455] | 113
Cc1csc2ncc(C(=O)Nc3ccccc3C(F)(F)F)c(=O)n12 [CBK287456] | 86.4
Cc1csc2ncc(C(=O)Nc3ccc(F)c(Cl)c3)c(=O)n12 [CBK287460] | 107

SMILES | viability at 28.5 h, 10 µM [%]
COc1ccc(OC)c(NC(=O)c2cnc3scc(C)n3c2=O)c1 [CBK287462] | 90.5
COc1cccc2sc(Nc3nc4c(s3)C(=O)CC(C)(C)C4)nc12 [CBK287467] | 86
COc1cccc2sc(Nc3nc(-c4cccs4)cs3)nc12 [CBK287469] | 82.8
COc1cccc2sc(Nc3nc(-c4cccnc4)cs3)nc12 [CBK287470] | 98.5
COc1cccc2sc(Nc3nc(C)c(C(C)=O)s3)nc12 [CBK287471] | 109
Fc1cccc2sc(Nc3nc(-c4cccs4)cs3)nc12 [CBK287476] | 85.9
CC1CCc2c(sc(Nc3nc4c(F)cccc4s3)c2C(N)=O)C1 (centres unmarked) [CBK287477] | 102
Fc1cccc2sc(Nc3nc(-c4ccccn4)cs3)nc12 [CBK287479] | 108
Fc1cccc2sc(Nc3nnc(-c4ccco4)o3)nc12 [CBK287480] | 82.6
COc1ccc2nc(Nc3nc4c(s3)C(=O)CC(C)(C)C4)sc2c1 [CBK287481] | 90.5
COc1ccc2nc(Nc3nc4ccc(S(C)(=O)=O)cc4s3)sc2c1 [CBK287484] | 102
Fc1ccc2nc(Nc3nnc(-c4ccco4)o3)sc2c1 [CBK287488] | 94.5
CC(=O)Nc1ccc2nc(Nc3nc4c(F)cc(F)cc4s3)sc2c1 [CBK287489] | 107
c1cncc(-c2csc(Nc3nc4cc5c(cc4s3)OCO5)n2)c1 [CBK287490] | 87.2
c1c2c(cc3sc(N4CCOCC4)nc13)OCO2 [CBK287494] | 97.7
c1ccc(N2CCN(c3nc4cc5c(cc4s3)OCO5)CC2)cc1 [CBK287495] | 108
c1c2c(cc3sc(N4CCCCC4)nc13)OCCO2 [CBK287497] | 89.3
c1ccc(N2CCN(c3nc4cc5c(cc4s3)OCCO5)CC2)cc1 [CBK287499] | 93.6
CCSc1nnc(Cc2cc(=O)[nH]c(=O)[nH]2)n1-c1ccc(F)cc1 [CBK287500] | 85.2
Cc1c(C(=O)Nc2ccccn2)sc2nc(-c3ccccc3)cn12 [CBK287501] | 98.3
Cc1ccc(Cn2cnc3c(nnn3-c3ccc(C)cc3)c2=O)cc1 [CBK287502] | 102
Cc1ccc(C(=O)Nc2cccc(-c3cn4cccnc4n3)c2)cc1 [CBK287503] | 93.8
Cc1c(-c2cccc(NC(=O)c3ccccc3)c2)nc2ncccn12 [CBK287504] | 67.3
